In PubChem BioAssay (NCI):
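A five-concentration, 48-hour dose response in 96-well plates underlies each endpoint, interpolated linearly between surrounding concentrations. At the GI50, growth is halved. TGI: total growth inhibition.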

Key:
Experiment in all cases: NCI-60 cell line screen, 48 h
T-47D breast = system: T-47D breast
MDA-MB-231 breast = system: MDA-MB-231 breast
KM12 colon = system: KM12 colon
NCI-H460 lung = system: NCI-H460 lung
SR leukemia = system: SR leukemia
HCC-2998 colon = system: HCC-2998 colon
MDA-MB-468 breast = system: MDA-MB-468 breast
A498 renal = system: A498 renal
OVCAR-8 ovarian = system: OVCAR-8 ovarian
TK-10 renal = system: TK-10 renal
UO-31 renal = system: UO-31 renal
SNB-19 CNS = system: SNB-19 CNS
NCI/ADR-RES ovarian = system: NCI/ADR-RES ovarian
NCI-H522 lung = system: NCI-H522 lung
OVCAR-5 ovarian = system: OVCAR-5 ovarian
RPMI-8226 leukemia = system: RPMI-8226 leukemia
HCT-15 colon = system: HCT-15 colon
MALME-3M melanoma = system: MALME-3M melanoma
SK-MEL-28 melanoma = system: SK-MEL-28 melanoma
IGROV1 ovarian = system: IGROV1 ovarian
MOLT-4 leukemia = system: MOLT-4 leukemia
CAKI-1 renal = system: CAKI-1 renal
HCT-116 colon = system: HCT-116 colon
786-0 renal = system: 786-0 renal
CCRF-CEM leukemia = system: CCRF-CEM leukemia
BT-549 breast = system: BT-549 breast
NCI-H226 lung = system: NCI-H226 lung
SF-295 CNS = system: SF-295 CNS
ACHN renal = system: ACHN renal
PC-3 prostate = system: PC-3 prostate
HOP-92 NSCLC = system: HOP-92 NSCLC
SF-539 CNS = system: SF-539 CNS
U251 CNS = system: U251 CNS
MCF7 breast = system: MCF7 breast
HOP-62 NSCLC = system: HOP-62 NSCLC
RXF 393 renal = system: RXF 393 renal
OVCAR-4 ovarian = system: OVCAR-4 ovarian
SF-268 CNS = system: SF-268 CNS
SK-OV-3 ovarian = system: SK-OV-3 ovarian
UACC-62 melanoma = system: UACC-62 melanoma
HS 578T breast = system: HS 578T breast
UACC-257 melanoma = system: UACC-257 melanoma
K-562 leukemia = system: K-562 leukemia
NCI-H23 lung = system: NCI-H23 lung
LOX IMVI melanoma = system: LOX IMVI melanoma
A549 NSCLC = system: A549 NSCLC
SN12C renal = system: SN12C renal
MDA-MB-435 = system: MDA-MB-435
SW-620 colon = system: SW-620 colon
HL-60(TB) leukemia = system: HL-60(TB) leukemia
DU-145 prostate = system: DU-145 prostate
COLO 205 colon = system: COLO 205 colon
EKVX NSCLC = system: EKVX NSCLC
OVCAR-3 ovarian = system: OVCAR-3 ovarian
SK-MEL-5 melanoma = system: SK-MEL-5 melanoma
HT29 colon = system: HT29 colon
M14 melanoma = system: M14 melanoma

What does the source list for `O=C(Nc1ccc(C(F)(F)F)cc1)Nc1ccc2oc(=O)ccc2c1`?
GI50 (T-47D breast): 2.85 µM; TGI (T-47D breast): > 100 µM; GI50 (MDA-MB-231 breast): 11.7 µM; TGI (MDA-MB-231 breast): > 100 µM; GI50 (KM12 colon): 3.51 µM; TGI (KM12 colon): > 100 µM; GI50 (NCI-H460 lung): 4.17 µM; TGI (NCI-H460 lung): > 100 µM; GI50 (SR leukemia): 3.86 µM; TGI (SR leukemia): > 100 µM; GI50 (HCC-2998 colon): 3.51 µM; TGI (HCC-2998 colon): > 100 µM; GI50 (MDA-MB-468 breast): 2.97 µM; TGI (MDA-MB-468 breast): > 100 µM; GI50 (A498 renal): > 100 µM; TGI (A498 renal): > 100 µM; GI50 (OVCAR-8 ovarian): 5.93 µM; TGI (OVCAR-8 ovarian): > 100 µM; GI50 (TK-10 renal): > 100 µM; TGI (TK-10 renal): > 100 µM; GI50 (UO-31 renal): 2.14 µM; TGI (UO-31 renal): > 100 µM; GI50 (SNB-19 CNS): 4.37 µM; TGI (SNB-19 CNS): > 100 µM; GI50 (NCI/ADR-RES ovarian): 3.86 µM; TGI (NCI/ADR-RES ovarian): > 100 µM; GI50 (NCI-H522 lung): 2.8 µM; TGI (NCI-H522 lung): > 100 µM; GI50 (OVCAR-5 ovarian): > 100 µM; TGI (OVCAR-5 ovarian): > 100 µM; GI50 (RPMI-8226 leukemia): 2.04 µM; TGI (RPMI-8226 leukemia): 5.87 µM; GI50 (HCT-15 colon): 2.91 µM; TGI (HCT-15 colon): > 100 µM; GI50 (MALME-3M melanoma): 4.87 µM; TGI (MALME-3M melanoma): > 100 µM; GI50 (SK-MEL-28 melanoma): > 100 µM; TGI (SK-MEL-28 melanoma): > 100 µM; GI50 (IGROV1 ovarian): 3.55 µM; TGI (IGROV1 ovarian): > 100 µM; GI50 (MOLT-4 leukemia): 2.86 µM; TGI (MOLT-4 leukemia): > 100 µM; GI50 (CAKI-1 renal): 2.58 µM; TGI (CAKI-1 renal): > 100 µM; GI50 (HCT-116 colon): 2.95 µM; TGI (HCT-116 colon): > 100 µM; GI50 (786-0 renal): 19.3 µM; TGI (786-0 renal): > 100 µM; GI50 (CCRF-CEM leukemia): 3.2 µM; TGI (CCRF-CEM leukemia): > 100 µM; GI50 (BT-549 breast): 3.4 µM; TGI (BT-549 breast): > 100 µM; GI50 (NCI-H226 lung): 3.67 µM; TGI (NCI-H226 lung): > 100 µM; GI50 (SF-295 CNS): 2.63 µM; TGI (SF-295 CNS): > 100 µM; GI50 (ACHN renal): 2.7 µM; TGI (ACHN renal): > 100 µM; GI50 (PC-3 prostate): 2.34 µM; TGI (PC-3 prostate): > 100 µM; GI50 (HOP-92 NSCLC): 1.49 µM; TGI (HOP-92 NSCLC): 5.73 µM; GI50 (SF-539 CNS): 5.81 µM; TGI (SF-539 CNS): > 100 µM; GI50 (U251 CNS): 4.34 µM; TGI (U251 CNS): > 100 µM; GI50 (MCF7 breast): 2.48 µM; TGI (MCF7 breast): > 100 µM; GI50 (HOP-62 NSCLC): 9.77 µM; TGI (HOP-62 NSCLC): > 100 µM; GI50 (RXF 393 renal): 18.2 µM; TGI (RXF 393 renal): > 100 µM; GI50 (OVCAR-4 ovarian): 5.4 µM; TGI (OVCAR-4 ovarian): > 100 µM; GI50 (SF-268 CNS): 18.6 µM; TGI (SF-268 CNS): > 100 µM; GI50 (SK-OV-3 ovarian): 91.4 µM; TGI (SK-OV-3 ovarian): > 100 µM; GI50 (UACC-62 melanoma): 5.76 µM; TGI (UACC-62 melanoma): > 100 µM; GI50 (HS 578T breast): 16.7 µM; TGI (HS 578T breast): > 100 µM

What does the source list for `N#CC1=C(c2ccco2)Nc2c(c(-c3ccccc3)nn2-c2ccccc2)C12C(=O)Nc1ccc(Cl)cc12` (configuration not stated)?
GI50 (UACC-257 melanoma): 16.6 µM; TGI (UACC-257 melanoma): 41.4 µM; GI50 (K-562 leukemia): 16.6 µM; TGI (K-562 leukemia): > 100 µM; GI50 (NCI-H23 lung): 15.5 µM; TGI (NCI-H23 lung): 32.4 µM; GI50 (T-47D breast): 19.5 µM; TGI (T-47D breast): > 100 µM; GI50 (KM12 colon): 49.5 µM; TGI (KM12 colon): > 100 µM; GI50 (NCI-H460 lung): 14.1 µM; TGI (NCI-H460 lung): 31.8 µM; GI50 (SR leukemia): 23.3 µM; TGI (SR leukemia): > 100 µM; GI50 (LOX IMVI melanoma): 19.2 µM; TGI (LOX IMVI melanoma): 47.1 µM; GI50 (HCC-2998 colon): 19.2 µM; TGI (HCC-2998 colon): 58.9 µM; GI50 (MDA-MB-468 breast): 19 µM; TGI (MDA-MB-468 breast): 64.7 µM; GI50 (A498 renal): 14.5 µM; TGI (A498 renal): 30.9 µM; GI50 (OVCAR-8 ovarian): 15.7 µM; TGI (OVCAR-8 ovarian): 30.7 µM; GI50 (A549 NSCLC): 11.6 µM; TGI (A549 NSCLC): 25.1 µM; GI50 (TK-10 renal): 15 µM; TGI (TK-10 renal): 30.6 µM; GI50 (SNB-19 CNS): 17.4 µM; TGI (SNB-19 CNS): 46 µM; GI50 (SN12C renal): 17 µM; TGI (SN12C renal): 36.7 µM; GI50 (MDA-MB-435): 34.8 µM; TGI (MDA-MB-435): > 100 µM; GI50 (NCI/ADR-RES ovarian): 14.8 µM; TGI (NCI/ADR-RES ovarian): 30 µM; GI50 (SW-620 colon): 30.3 µM; TGI (SW-620 colon): > 100 µM; GI50 (NCI-H522 lung): 14.5 µM; TGI (NCI-H522 lung): 38.8 µM; GI50 (OVCAR-5 ovarian): 23.8 µM; TGI (OVCAR-5 ovarian): > 100 µM; GI50 (RPMI-8226 leukemia): 18.7 µM; TGI (RPMI-8226 leukemia): > 100 µM; GI50 (HCT-15 colon): 19.6 µM; TGI (HCT-15 colon): > 100 µM; GI50 (MALME-3M melanoma): 14.7 µM; TGI (MALME-3M melanoma): 29.8 µM; GI50 (SK-MEL-28 melanoma): 15.5 µM; TGI (SK-MEL-28 melanoma): 33 µM; GI50 (IGROV1 ovarian): 16.3 µM; TGI (IGROV1 ovarian): 38.4 µM; GI50 (MOLT-4 leukemia): 6.05 µM; TGI (MOLT-4 leukemia): 91.2 µM; GI50 (CAKI-1 renal): 29.5 µM; TGI (CAKI-1 renal): > 100 µM; GI50 (HCT-116 colon): 13.1 µM; TGI (HCT-116 colon): 26 µM; GI50 (HL-60(TB) leukemia): 15 µM; TGI (HL-60(TB) leukemia): > 100 µM; GI50 (786-0 renal): 16.2 µM; TGI (786-0 renal): 56 µM; GI50 (CCRF-CEM leukemia): 49.7 µM; TGI (CCRF-CEM leukemia): > 100 µM; GI50 (BT-549 breast): 12.2 µM; TGI (BT-549 breast): 28.2 µM; GI50 (NCI-H226 lung): 17.5 µM; TGI (NCI-H226 lung): 50.2 µM; GI50 (DU-145 prostate): 19.4 µM; TGI (DU-145 prostate): 43.9 µM; GI50 (COLO 205 colon): 14.7 µM; TGI (COLO 205 colon): 29.7 µM; GI50 (SF-295 CNS): 16.9 µM; TGI (SF-295 CNS): 56.3 µM; GI50 (ACHN renal): 18.1 µM; TGI (ACHN renal): 61 µM; GI50 (PC-3 prostate): 12 µM; TGI (PC-3 prostate): 28 µM; GI50 (EKVX NSCLC): 16.5 µM; TGI (EKVX NSCLC): 66 µM; GI50 (OVCAR-3 ovarian): 20.4 µM; TGI (OVCAR-3 ovarian): 61 µM; GI50 (HOP-92 NSCLC): 12.8 µM; TGI (HOP-92 NSCLC): 28.5 µM; GI50 (SF-539 CNS): 17.9 µM; TGI (SF-539 CNS): 40.6 µM; GI50 (U251 CNS): 13.3 µM; TGI (U251 CNS): 29.2 µM; GI50 (MCF7 breast): 15.7 µM; TGI (MCF7 breast): 49.7 µM; GI50 (SK-MEL-5 melanoma): 18 µM; TGI (SK-MEL-5 melanoma): 41.8 µM; GI50 (HT29 colon): 14.6 µM; TGI (HT29 colon): 30.2 µM; GI50 (HOP-62 NSCLC): 14.8 µM; TGI (HOP-62 NSCLC): 28.9 µM; GI50 (M14 melanoma): 15 µM; TGI (M14 melanoma): 32.7 µM; GI50 (RXF 393 renal): 13.2 µM; TGI (RXF 393 renal): 29.9 µM; GI50 (OVCAR-4 ovarian): 15.4 µM; TGI (OVCAR-4 ovarian): 33.3 µM; GI50 (SF-268 CNS): 17.8 µM; TGI (SF-268 CNS): 90.1 µM; GI50 (SK-OV-3 ovarian): 15.8 µM; TGI (SK-OV-3 ovarian): 33.9 µM; GI50 (UACC-62 melanoma): 11.4 µM; TGI (UACC-62 melanoma): 28.2 µM; GI50 (HS 578T breast): 12.6 µM; TGI (HS 578T breast): 40.9 µM
